The values below come from patent publication US20170234889A1, “hGH Determination for Use to Guide Prevention of a Major Adverse Cardiac Event or a Cardiovascular Disease in a Subject” (Sphingotec GmbH, priority 2014, published 2017).

Format in all cases: in vivo, human
Experiment [1] concerns subjects with plaque in the right carotid artery but no symptoms of carotid artery disease. Kind of experiment: BCAPS: LDL-C under treatment. As to conditions: 12 months of treatment. An excerpt: The β-Blocker Cholesterol-Lowering Asymptomatic Plaque Study (BCAPS) was a randomized, double blind, placebo-controlled, single-center clinical trial that took place between 1994 and 1999. A detailed description of BCAPS can be found in the original paper (Hedblad et al. 2001. Circulation 103: 1721-1726), following here is a brief summary. The original study population consisted of 361 men and 432 women (total n=793) 49 to 70 years of age recruited from MDC-CC. Subjects included in BCAPS had plaque in the right carotid artery but no symptoms of carotid artery disease. […] HDL-C, total cholesterol and TG were measured according to standard procedures at the Department of Clinical Chemistry, University Hospital of Malmö. LDL-C levels were calculated according to the Friedewald formula. GH levels were measured in stored fasting plasma samples, which were frozen immediately to −80° C. at the different examinations. […] All samples were measured using the hs-hGH immunoassay as described above.

Experiment [2] has the same test system. In words: BCAPS: carotid ultrasound intima media thickness (IMT). The conditions noted are these: 36 months; for IMTbulb, median: maximum IMT at the carotid bifurcation; for IMTcca, median: mean IMT in the common carotid artery. An excerpt: The β-Blocker Cholesterol-Lowering Asymptomatic Plaque Study (BCAPS) was a randomized, double blind, placebo-controlled, single-center clinical trial that took place between 1994 and 1999. A detailed description of BCAPS can be found in the original paper (Hedblad et al. 2001. Circulation 103: 1721-1726), following here is a brief summary. The original study population consisted of 361 men and 432 women (total n=793) 49 to 70 years of age recruited from MDC-CC. Subjects included in BCAPS had plaque in the right carotid artery but no symptoms of carotid artery disease. Exclusion criteria were: myocardial infarction, angina pectoris or stroke within the previous 3 months; previous surgery in the right carotid artery; regular use of β-blockers or statins; blood pressure >160 (systolic) or >95 (diastolic) mm Hg; total cholesterol >8.0 mmol/l; hyperglycemia suspected to require insulin treatment; and conditions that in the view of the investigator made the participant unsuitable for the trial. The study consisted of 4 different treatment groups and the participants were randomized to 1 of the following: placebo/placebo, metoprolol CR/XL (25 mg once daily)/placebo, fluvastatin (40 mg once daily)/placebo or metoprolol CR/XL (25 mg once daily)/fluvastatin (40 mg once daily). Carotid ultrasound was performed at baseline, 18 and 36 months (Hedblad et al. 2001. Circulation 103: 1721-1726). In brief, a predefined extent of the right carotid bifurcation was scanned for presence of plaques and the maximum IMT at the bifurcation (IMTbulb) and the mean IMT in the common carotid artery ([…]) was measured.

Experiment [3] has the same test system. Kind of experiment: BCAPS: fasting plasma hs-GH under treatment. As to conditions: for Growth Hormone - females, geometric mean / Growth Hormone - males, geometric mean: 12 months of treatment, fasting plasma. An excerpt: The β-Blocker Cholesterol-Lowering Asymptomatic Plaque Study (BCAPS) was a randomized, double blind, placebo-controlled, single-center clinical trial that took place between 1994 and 1999. A detailed description of BCAPS can be found in the original paper (Hedblad et al. 2001. Circulation 103: 1721-1726), following here is a brief summary. The original study population consisted of 361 men and 432 women (total n=793) 49 to 70 years of age recruited from MDC-CC. Subjects included in BCAPS had plaque in the right carotid artery but no symptoms of carotid artery disease. Exclusion criteria were: myocardial infarction, angina pectoris or stroke within the previous 3 months; previous surgery in the right carotid artery; regular use of β-blockers or statins; blood pressure >160 (systolic) or >95 (diastolic) mm Hg; total cholesterol >8.0 mmol/l; hyperglycemia suspected to require insulin treatment; and conditions that in the view of the investigator made the participant unsuitable for the trial. The study consisted of 4 different treatment groups and the participants were randomized to 1 of the following: placebo/placebo, metoprolol CR/XL (25 mg once daily)/placebo, fluvastatin (40 mg once daily)/placebo or metoprolol CR/XL (25 mg once daily)/fluvastatin (40 mg once daily). The treatment period was 36-months. Fasting blood samples were drawn at baseline and at 12, 24 and 36 months. HDL-C, total cholesterol and TG were measured according to standard procedures at the Department of Clinical Chemistry, University Hospital of Malmö. LDL-C levels were calculated according to the Friedewald formula. GH levels were measured in stored fasting plasma samples, which were frozen immediately to −80° C. at the different examinations. A number of the samples stored in the freezer were missing or had insufficient plasma for the analysis of hs-GH. Subjects in which either the baseline-value of GH or the 12-month value of GH was missing were excluded from further analysis. After this adjustment the study consisted of 472 individuals. All samples were measured using the hs-hGH immunoassay as described above. In the analyses where treatment groups are compared, the groups are either the 4 randomization groups or they are divided in to 2 groups which are fluvastatin vs non-fluvastatin (i.e placebo) or metoprolol vs non-metoprolol. Since fasting hs-GH is known to differ between men and women all models were performed separate for men and women as well as combined. All models were adjusted for age, sex (if not already gender separated) and the natural logarithm of the fasting level of hs-GH at baseline. To investigate if fasting hs-GH was affected by treatment with fluvastatin or metoprolol we performed multiple regression analysis with ΔGH (baseline value subtracted from 12 month value) as the dependent variable and the treatment groups as independent variables.

Experiment [4] relates to patients with acute myocardial infarction. Kind of experiment: AMI cohort: Cox regression and Kaplan-Meier analysis for MACE at 2 years post-AMI. As for the experimental part:
We studied 953 STEMI and NSTEMI patients admitted to University Hospitals of Leicester NHS trust between August 2004 and April 2007. This observational cohort study complied with the Declaration of Helsinki and was approved by the local ethics committee; written informed consent was obtained from patients. […] Patients with known malignancy, renal replacement therapy or surgery in the previous month were excluded. Estimated glomerular filtration rate (eGFR) was calculated from the simplified Modification of Diet in Renal Disease formula (Smilde T D, van Veldhuisen D J, Navis G, Voors A A, Hillege H L. Drawbacks and prognostic value of formulas estimating renal function in patients with chronic heart failure and systolic dysfunction. Circulation 2006; 114:1572-80). All patients received standard medical treatment and revascularisation was at the discretion of the attending physician.
Plasma samples: Blood samples (anticoagulated with EDTA and aprotinin) were drawn after 15 minutes bed rest, immediately after diagnosis and within 36 h of symptom onset. Plasma was stored at −80° C. until assayed in a single batch for blinded determination of plasma hGH.
During follow-up over 2 years, there were 281 MACE, the primary composite endpoint (comprising 117 deaths, 71 HF hospitalisations and 93 re-AMIs). […]

Setting [5] is: FEMALE, all receiving the drug vs individuals not receiving it.
Setting [6] is: FEMALE, model All groups, each compared against placebo.
Where [7] appears, read: MALE, all receiving the drug vs individuals not receiving it.
Setting [8] is: MALE, model All groups, each compared against placebo.
[9] abbreviates: gender ALL, all receiving the drug vs individuals not receiving it.
The mark [10] stands for this setting: gender ALL, model All groups, each compared against placebo.

The structures appear in SMILES notation.

Take `COCCc1ccc(OCC(O)CNC(C)C)cc1` (centres unmarked) [Metoprolol]: the “LDL-C, mean” value in experiment [1] was found to be 4.17 mmol/L. Moreover, the “IMTbulb, median” value in experiment [2] is recorded as 1.89. Moreover, the “IMTcca, median” value in experiment [2] is 0.90. For the same compound, in experiment [3], the “Growth Hormone - females, geometric mean” value was found to be 860 pg/mL. Besides, the “Growth Hormone - males, geometric mean” value in experiment [3] stood at 170 pg/mL. The “B, multiple linear regression of ΔGH (12 months - baseline) vs treatment group” value is 0.33 in experiment [3] (setting [5]); −0.06 in experiment [3] (setting [6]); −0.27 in experiment [3] (setting [7]); −0.26 in experiment [3] (setting [8]); 0.13 in experiment [3] (setting [9]); −0.11 in experiment [3] (setting [10]).

Take `CC(=O)Oc1ccccc1C(=O)O` [Aspirin]: the “Univariable HR (95% CI) for MACE” value in experiment [4] is recorded as 0.54 (0.41-0.72).

In the case of `CC(C)n1c(/C=C/C(O)CC(O)CC(=O)O)c(-c2ccc(F)cc2)c2ccccc21` (centres unmarked) [Fluvastatin], the “LDL-C, mean” value in experiment [1] is recorded as 3.27 mmol/L. Besides, in experiment [2], the “IMTbulb, median” value is listed as 2.02. Besides, the “IMTcca, median” value in experiment [2] came to 0.87. Further, the “Growth Hormone - females, geometric mean” value in experiment [3] is 810 pg/mL. For the same compound, the “Growth Hormone - males, geometric mean” value in experiment [3] turned out to be 160 pg/mL. Also, the “B, multiple linear regression of ΔGH (12 months - baseline) vs treatment group” value in experiment [3] (setting [5]) is on record as 0.41; in experiment [3] (setting [6]) it was 0.02; in experiment [3] (setting [7]) it was −0.37; in experiment [3] (setting [8]), −0.36; in experiment [3] (setting [9]) it was 0.12; in experiment [3] (setting [10]), −0.11.
